This note sets out measurements from ChEMBL document CHEMBL3425490, “Activity of lipo-cyclic γ-AApeptides against biofilms of Staphylococcus epidermidis and Pseudomonas aeruginosa” (Bioorg Med Chem Lett, 2015).

≈ marks a conversion by molar mass, not a printed value. Calls of active or inactive are those of the source. The calls are words filed in the database; no cut-off is given here.

Data set [1] has as its system Pseudomonas aeruginosa. Put plainly: Inhibition of biofilm formation of Pseudomonas aeruginosa ATCC 27853 after 24 hrs by crystal violet staining-based assay. It is filed as functional.
The subject of data set [2] is Pseudomonas aeruginosa. Put plainly: microbe, parasite or virus in culture. The following applies: 5761.
Description: Antibacterial activity against Pseudomonas aeruginosa 5761 by macrobroth dilution method
In data set [3] the test system is Staphylococcus epidermidis. Put plainly: Bactericidal activity against methicillin-resistant Staphylococcus epidermidis ATCC 35984 assessed as decrease in log10CFU/ml at 12.5 to 50 ug/ml incubated for 6 hrs followed by plating measured after 24 hrs relative to control. It is filed as functional. The following applies: for Activity: RP62A.
Data set [4] has as its system Pseudomonas aeruginosa. Put plainly: Induction of pre-existing Pseudomonas aeruginosa ATCC 27853 biofilm detachment after 24 hrs by crystal violet staining-based assay relative to control. In kind it is functional. Also noted: concentration or dose not given beside the values.
Data set [5] concerns Pseudomonas aeruginosa. Put plainly: microbe, parasite or virus in culture. The following applies: 8545.
Description: Antibacterial activity against Pseudomonas aeruginosa 8545 by macrobroth dilution method
Data set [6] deals with Pseudomonas aeruginosa. Put plainly: Bactericidal activity against Pseudomonas aeruginosa ATCC 27853 assessed as decrease in log10CFU/ml at 12.5 to 50 ug/ml incubated for 6 hrs followed by plating measured after 24 hrs relative to control. In kind it is functional.
For data set [7], the system named is Staphylococcus epidermidis. Put plainly: microbe, parasite or virus in culture. As to conditions: RP62A.
Description: Antibacterial activity against oxacillin-susceptible Staphylococcus epidermidis ATCC 35984
The test system of data set [8] is Pseudomonas aeruginosa. Put plainly: microbe, parasite or virus in culture. As to conditions: 11683.
Description: Antibacterial activity against Pseudomonas aeruginosa 11683 by macrobroth dilution method
Data set [9] has as its system Staphylococcus epidermidis. Put plainly: Inhibition of biofilm formation of methicillin-resistant Staphylococcus epidermidis ATCC 35984 after 24 hrs by crystal violet staining-based assay relative to control. In kind it is functional.
Data set [10] has as its system Staphylococcus epidermidis. Put plainly: Induction of pre-existing methicillin-resistant Staphylococcus epidermidis ATCC 35984 biofilm detachment after 24 hrs by crystal violet staining-based assay relative to control. It is filed as functional, RP62A. Also noted: concentration or dose not given beside the values.
The test system of data set [11] is Staphylococcus epidermidis. Put plainly: microbe, parasite or virus in culture. As to conditions: RP62A. This is another data set of the same source.
Description: Antibacterial activity against oxacillin-resistant Staphylococcus epidermidis ATCC 35984
Data set [12] has as its system Pseudomonas aeruginosa. Put plainly: Antibacterial activity against Pseudomonas aeruginosa ATCC 27853 after 18 hrs by broth microdilution method. It is filed as functional. As to conditions: ATCC 27853, 18 h. A general note: Dilution methods test growth across graded concentrations, often in twofold steps.
Data set [13] relates to Staphylococcus epidermidis. Put plainly: Antibacterial activity against methicillin-resistant Staphylococcus epidermidis ATCC 35984 after 18 hrs by broth microdilution method. The following applies: RP62A. It is filed as functional.
Data set [14] in a line: Hemolytic activity in human RBC after 1 hr. In kind it is ADME, cell-based, Erythrocyte. As to conditions: red blood cells (RBC).
Data set [15] relates to Pseudomonas aeruginosa. Put plainly: Inhibition of biofilm formation of Pseudomonas aeruginosa ATCC 27853 at 6.25 to 12.56 after 24 hrs by crystal violet staining-based assay relative to control. It is filed as functional.
For data set [16], the system named is Staphylococcus epidermidis. Put plainly: Inhibition of biofilm formation of methicillin-resistant Staphylococcus epidermidis ATCC 35984 at 6.25 to 12.56 after 24 hrs by crystal violet staining-based assay relative to control. In kind it is functional, RP62A.

Regarding `O=C(O)c1cn(C2CC2)c2cc(N3CCNCC3)c(F)cc2c1=O` [CIPROFLOXACIN], the inhibition entry (in the data set with Pseudomonas aeruginosa [1]; in [9] (RP62A)) was “Active” in each case. Further, the MIC against Pseudomonas aeruginosa [2] is 0.09 µg/mL (≈ 0.272 µM); in the data set with Pseudomonas aeruginosa [5] it was 0.09 µg/mL (≈ 0.272 µM); in data set [7] it was 0.12 µg/mL (≈ 0.362 µM); in the data set with Pseudomonas aeruginosa [8] it was 0.09 µg/mL (≈ 0.272 µM); in [11], 0.12 µg/mL (≈ 0.362 µM). Further, the outcome (in [3]; with Pseudomonas aeruginosa [6]) was Active. Also, the results for the Activity (in the data set on Pseudomonas aeruginosa [4]; in [10]) were 50% and 30%, respectively.

By HC50 is commonly meant the concentration giving 50% haemolysis. As to `CCCCCCCCCCCCCCCC(=O)N(CC(N)=O)C[C@H](CCCCN)NC(=O)CN1C[C@H](Cc2ccccc2)NC(=O)CN(C(=O)CCc2ccccc2)C[C@H](CCCCN)NC(=O)CN(C(=O)CCCN)C[C@H](Cc2ccccc2)NC(=O)CN(C(=O)CCc2ccccc2)C[C@H](CCCCN)NC(=O)CCC1=O`, the “inhibition (INH)” value turned out to be 60% in the data set with Pseudomonas aeruginosa [1] and 40% in [9]. For the same compound, the result (in data set [3]; in the data set with Pseudomonas aeruginosa [6]) was Active. For the same compound, the Activity came to 50% in the data set on Pseudomonas aeruginosa [4] and 10% in data set [10]. Also, the MIC against Pseudomonas aeruginosa [12] was determined as 6 µM (≈ 9.49 µg/mL); in data set [13] it was 3 µM (≈ 4.74 µg/mL). In addition, the HC50 at 1 h in data set [14] is 114 µM.

In the case of `CCCCCCCCCCCCCCCC(=O)N(CC(N)=O)C[C@H](CCCCN)NC(=O)CN1C[C@H](Cc2ccccc2)NC(=O)CN(C(=O)CCc2ccccc2)C[C@H](CCCCN)NC(=O)CN(C(=O)CCc2ccccc2)C[C@H](CCCCN)NC(=O)CN(C(=O)CCc2ccccc2)C[C@H](CCCCN)NC(=O)CCC1=O`, the results for the “inhibition (INH)” value (with Pseudomonas aeruginosa [1]; in data set [9]) were 60% and 40%, respectively. Moreover, the Activity with Pseudomonas aeruginosa [4] came out at 60%; in data set [10], 10%. The results for the MIC (in the data set on Pseudomonas aeruginosa [12]; in data set [13]) were 12 µM (≈ 19.3 µg/mL) and 1 µM (≈ 1.61 µg/mL), respectively. In addition, in data set [14], the HC50 at 1 h came to 160 µM.

On to `CCCCCCCCCCCCCCCC(=O)N(CC(N)=O)C[C@H](CCCCN)NC(=O)CN1C[C@H](Cc2ccccc2)NC(=O)CN(C(=O)CCCN)C[C@H](Cc2ccccc2)NC(=O)CN(C(=O)CCCN)C[C@H](Cc2ccccc2)NC(=O)CN(C(=O)CCc2ccccc2)C[C@H](CCCCN)NC(=O)CCC1=O`, for which the MIC turned out to be 6 µM (≈ 9.32 µg/mL) against Pseudomonas aeruginosa [12] and 0.6 µM (≈ 0.932 µg/mL) in data set [13]. For the same compound, the HC50 at 1 h in data set [14] was determined as 129 µM.

As for `CCCCCCCCCCCCCCCC(=O)N(CC(N)=O)C[C@H](CCCCN)NC(=O)CN1C[C@H](Cc2ccccc2)NC(=O)CN(C(=O)CCc2ccccc2)C[C@H](CCCCN)NC(=O)CN(C(=O)CCc2ccccc2)C[C@H](CCCCN)NC(=O)CN(C(=O)CCc2ccccc2)C[C@H](CCCCN)NC(=O)CN(C(=O)CCc2ccccc2)C[C@H](CCCCN)NC(=O)CCC1=O`, the figures for the “inhibition (INH)” value (with Pseudomonas aeruginosa [1]; in data set [9]) were 60% and 40%, respectively. Also, the outcome (in data set [3]; in the data set with Pseudomonas aeruginosa [6]) was Active. Besides, the Activity turned out to be 50% in the data set with Pseudomonas aeruginosa [4] and 10% in [10]. The MIC (in the data set on Pseudomonas aeruginosa [12]; in data set [13]) was 13 µM (≈ 24.9 µg/mL) throughout. The HC50 at 1 h in data set [14] came out at 130 µM.

As for `CCCCCCCCCCCCCCCC(=O)N(CC(N)=O)C[C@H](CCCCN)NC(=O)CN1C[C@H](Cc2ccccc2)NC(=O)CN(C(=O)CCCN)C[C@H](Cc2ccccc2)NC(=O)CN(C(=O)CCCN)C[C@H](Cc2ccccc2)NC(=O)CN(C(=O)CCCN)C[C@H](Cc2ccccc2)NC(=O)CCC1=O`, the “inhibition (INH)” value came out at 80% with Pseudomonas aeruginosa [15] and 70% in data set [16]. Besides, the deltalog10CFU in data set [3] is reported as 8; in the data set on Pseudomonas aeruginosa [6] it was 6. In addition, the Activity in the data set on Pseudomonas aeruginosa [4] is 50%; in [10] it was 30%. The MIC worked out at 3 µM (≈ 4.58 µg/mL) in the data set with Pseudomonas aeruginosa [12] and 0.6 µM (≈ 0.915 µg/mL) in [13]. Moreover, the HC50 at 1 h in [14] came out at 65 µM.

For the compound `CCCCCCCCCCCCCCCC(=O)N(CC(N)=O)C[C@H](CCCCN)NC(=O)CN1C[C@H](Cc2ccccc2)NC(=O)CN(C(=O)CCc2ccccc2)C[C@H](CCCCN)NC(=O)CN(C(=O)CCCN)C[C@H](Cc2ccccc2)NC(=O)CN(C(=O)CCCN)C[C@H](Cc2ccccc2)NC(=O)CN(C(=O)CCc2ccccc2)C[C@H](CCCCN)NC(=O)CCC1=O`, the “inhibition (INH)” value is listed as 60% with Pseudomonas aeruginosa [1] and 40% in data set [9]. For the same compound, the Activity in the data set on Pseudomonas aeruginosa [4] was found to be 50%; in data set [10], 10%. Further, the MIC amounted to 14 µM (≈ 26 µg/mL) with Pseudomonas aeruginosa [12] and 3 µM (≈ 5.57 µg/mL) in [13]. In data set [14], this compound had an HC50 at 1 h of 82 µM.
